# Experiments:
# [1] = Metabolic stability in CD1 mouse hepatocytes assessed as muraglitazar glucuronide level by LC/MS analysis relative to control; type: ADME, cell-based, Hepatocyte
# [2] = Metabolic stability in CD1 mouse hepatocytes assessed as O-Dealkyl muraglitazar level by LC/MS analysis relative to control; type: ADME, cell-based, Hepatocyte
# Hepatocyte [3] = assay: Metabolic stability in Sprague-Dawley rat hepatocytes assessed as 8,12-dihydroxy muraglitazar level by LC/MS analysis relative to control; type: ADME, cell-based
# [4] = Biodistribution in orally dosed cynomolgus monkey feces assessed as O-dealkyl-O-demethyl muraglitazar level by LC/MS analysis; type: ADME, organism-based, Macaca fascicularis; details: in vivo, po
# Plasma [5] = assay: Biodistribution in orally dosed cynomolgus monkey plasma assessed as O-demethyl muraglitazar glucuronide level after 1 hr by LC/MS analysis; type: ADME, organism-based, Macaca fascicularis; details: in vivo, po
# Plasma [6] = assay: Biodistribution in orally dosed Sprague-Dawley rat plasma assessed as 12-hydroxy-O-demethyl muraglitazar level after 12 hrs by LC/MS analysis; type: ADME, organism-based; details: in vivo, po
# [7] = Metabolic stability in cynomolgus monkey hepatocytes assessed as 12,17-dihydroxy muraglitazar level by LC/MS analysis relative to control; type: ADME, cell-based, Macaca fascicularis, Hepatocyte
# Plasma [8] = assay: Biodistribution in orally dosed cynomolgus monkey plasma assessed as O-demethyl muraglitazar glucuronide level after 12 hrs by LC/MS analysis; type: ADME, organism-based, Macaca fascicularis; details: in vivo, po
# [9] = Metabolic stability in cynomolgus monkey hepatocytes assessed as di-oxygenated muraglitazar level by LC/MS analysis relative to control; type: ADME, cell-based, Macaca fascicularis, Hepatocyte
# [10] = Biodistribution in orally dosed Beagle dog feces assessed as imide derivative of muraglitazar level by LC/MS analysis; type: ADME, organism-based, Canis lupus familiaris; details: in vivo, po
# Rattus norvegicus [11] = assay: Biodistribution in orally dosed Sprague-Dawley rat urine assessed as 8,12-dihydroxy muraglitazar level by LC/MS analysis; type: ADME, organism-based; details: in vivo, po
# Hepatocyte [12] = assay: Metabolic stability in human hepatocytes assessed as di-oxygenated muraglitazar level by LC/MS analysis relative to control; type: ADME, cell-based
# [13] = Biodistribution in orally dosed human feces assessed as O-demethyl muraglitazar level by LC/MS analysis; type: ADME, organism-based; details: in vivo, po
# Hepatocyte [14] = assay: Metabolic stability in human hepatocytes assessed as 9-hydroxy-O-demethyl muraglitazar level by LC/MS analysis relative to control; type: ADME, cell-based
# [15] = Fecal excretion of compound in orally dosed human within 48 hrs; type: ADME, organism-based; details: faeces, po, read-out: Activity
# Plasma [16] = assay: Biodistribution in orally dosed human plasma assessed as […] muraglitazar level after 4 hrs by LC/MS analysis; type: ADME, organism-based; details: in vivo, po
# [17] = Drug concentration in human bile at 20 mg/kg, po after 48 hrs; type: ADME, organism-based; design: dose 20 mg/kg, route oral; details: in vivo
# Plasma [18] = assay: Biodistribution in orally dosed human plasma assessed as muraglitazar glucuronide level after 4 hrs by LC/MS analysis; type: ADME, organism-based; details: in vivo, po
# [19] = Biodistribution in orally dosed human urine assessed as 17-hydroxy muraglitazar level by LC/MS analysis; type: ADME, organism-based; details: in vivo, po
# [20] = Biodistribution in orally dosed Beagle dog feces assessed as 9-hydroxy muraglitazar level by LC/MS analysis; type: ADME, organism-based, Canis lupus familiaris; details: in vivo, po
# [21] = Metabolic stability in CD1 mouse hepatocytes assessed as 8-hydroxy-O-demethyl muraglitazar level by LC/MS analysis relative to control; type: ADME, cell-based, Hepatocyte
# Plasma [22] = assay: Biodistribution in orally dosed cynomolgus monkey plasma assessed as muraglitazar 12-carboxylic acid level after 4 hrs by LC/MS analysis; type: ADME, organism-based, Macaca fascicularis; details: in vivo, po
# Rattus norvegicus [23] = assay: Biodistribution in orally dosed Sprague-Dawley rat feces assessed as 8-hydroxy muraglitazar level by LC/MS analysis; type: ADME, organism-based; details: in vivo, po
# Homo sapiens = assay: Cmax in human at 10 mg, po after 72 hrs; type: ADME, organism-based; design: dose 10 mg, route oral; details: in vivo
# [24] = Biodistribution in orally dosed Beagle dog feces assessed as 12-hydroxy muraglitazar level by LC/MS analysis; type: ADME, organism-based, Canis lupus familiaris; details: in vivo, po
# Plasma [25] = assay: Biodistribution in orally dosed cynomolgus monkey plasma assessed as 12-hydroxy-O-demethyl muraglitazar level after 4 hrs by LC/MS analysis; type: ADME, organism-based, Macaca fascicularis; details: in vivo, po
# Hepatocyte [26] = assay: Metabolic stability in Sprague-Dawley rat hepatocytes assessed as hydroxyl muraglitazar glucuronide level by LC/MS analysis relative to control; type: ADME, cell-based
# [27] = Metabolic stability in cynomolgus monkey hepatocytes assessed as 8-hydroxy muraglitazar level by LC/MS analysis relative to control; type: ADME, cell-based, Macaca fascicularis, Hepatocyte
# [28] = Drug concentration in bile duct-cannulated cynomolgus monkey bile assessed as recovery of radioactive dose at 5 mg/kg, po after 48 hrs; type: ADME, organism-based, Macaca fascicularis; design: dose 5 mg/kg, route oral; details: in vivo
# [29] = Drug concentration in Beagle dog urine assessed as recovery of radioactive dose at 1.9 mg/kg, po after 168 hrs; type: ADME, organism-based, Canis lupus familiaris; design: dose 1.9 mg/kg, route oral; details: in vivo
# Plasma [30] = assay: Biodistribution in orally dosed human plasma assessed as 12-hydroxy-O-demethyl muraglitazar level after 4 hrs by LC/MS analysis; type: ADME, organism-based; details: in vivo, po
# Hepatocyte [31] = assay: Metabolic stability in Sprague-Dawley rat hepatocytes assessed as O-demethyl muraglitazar level by LC/MS analysis relative to control; type: ADME, cell-based
# Plasma [32] = assay: Biodistribution in orally dosed Beagle dog plasma assessed as O-demethyl muraglitazar glucuronide level after 4 hrs by LC/MS analysis; type: ADME, organism-based, Canis lupus familiaris; details: in vivo, po
# Plasma [33] = assay: Biodistribution in orally dosed cynomolgus monkey plasma assessed as 12-hydroxy-O-demethyl muraglitazar level after 12 hrs by LC/MS analysis; type: ADME, organism-based, Macaca fascicularis; details: in vivo, po
# Rattus norvegicus [34] = assay: Biodistribution in orally dosed Sprague-Dawley rat urine assessed as 8-hydroxy-O-demethyl muraglitazar level by LC/MS analysis; type: ADME, organism-based; details: in vivo, po
# Plasma [35] = assay: Biodistribution in orally dosed human plasma assessed as muraglitazar glucuronide level after 1 hr by LC/MS analysis; type: ADME, organism-based; details: in vivo, po
# [36] = Biodistribution in orally dosed cynomolgus monkey feces assessed as 8,12-dihydroxy muraglitazar level by LC/MS analysis; type: ADME, organism-based, Macaca fascicularis; details: in vivo, po
# Rattus norvegicus [37] = assay: Biodistribution in orally dosed Sprague-Dawley rat urine assessed as O-demethyl muraglitazar level by LC/MS analysis; type: ADME, organism-based; details: in vivo, po
# Plasma [38] = assay: Biodistribution in orally dosed Sprague-Dawley rat plasma assessed as 12-dihydroxy muraglitazar level after 12 hrs by LC/MS analysis; type: ADME, organism-based; details: in vivo, po
# [39] = Biodistribution in orally dosed cynomolgus monkey urine assessed as 17-hydroxy muraglitazar level by LC/MS analysis; type: ADME, organism-based, Macaca fascicularis; details: in vivo, po
# [40] = Metabolic stability in CD1 mouse hepatocytes assessed as 17-hydroxy-O-demethyl muraglitazar level by LC/MS analysis relative to control; type: ADME, cell-based, Hepatocyte
# Plasma [41] = assay: Biodistribution in orally dosed cynomolgus monkey plasma assessed as O-Dealkyl muraglitazar level after 4 hrs by LC/MS analysis; type: ADME, organism-based, Macaca fascicularis; details: in vivo, po
# [42] = Drug concentration in bile duct-cannulated CD1 mouse bile assessed as recovery of radioactive dose at 1 mg/kg, po after 24 hrs; type: ADME, organism-based; design: dose 1 mg/kg, route oral; details: in vivo
# Hepatocyte [43] = assay: Metabolic stability in Sprague-Dawley rat hepatocytes assessed as muraglitazar glucuronide level by LC/MS analysis relative to control; type: ADME, cell-based
# [44] = Fecal excretion of compound in orally dosed cynomolgus monkey within 48 hrs; type: ADME, organism-based, Macaca fascicularis; details: faeces, po, read-out: Activity
# [45] = Metabolic stability in cynomolgus monkey hepatocytes assessed as 12-hydroxy muraglitazar level by LC/MS analysis relative to control; type: ADME, cell-based, Macaca fascicularis, Hepatocyte
# [46] = Biodistribution in orally dosed cynomolgus monkey feces assessed as 8-hydroxy-O-demethyl muraglitazar level by LC/MS analysis; type: ADME, organism-based, Macaca fascicularis; details: in vivo, po
# [47] = Tmax in Beagle dog at 2 mg/kg, po after 4 hrs; type: ADME, organism-based, Canis lupus familiaris; design: dose 2 mg/kg, route oral; details: in vivo
# Plasma [48] = assay: Biodistribution in orally dosed Beagle dog plasma assessed as O-Dealkyl muraglitazar level after 1 hr by LC/MS analysis; type: ADME, organism-based, Canis lupus familiaris; details: in vivo, po
# Hepatocyte [49] = assay: Metabolic stability in human hepatocytes assessed as 8,12-dihydroxy muraglitazar level by LC/MS analysis relative to control; type: ADME, cell-based
# [50] = Metabolic stability in CD1 mouse hepatocytes assessed as muraglitazar 12-carboxylic acid level by LC/MS analysis relative to control; type: ADME, cell-based, Hepatocyte
# Rattus norvegicus [51] = assay: Biodistribution in orally dosed Sprague-Dawley rat urine assessed as muraglitazar glucuronide level by LC/MS analysis; type: ADME, organism-based; details: in vivo, po
smiles,measurement,setting,value
COc1ccc(OC(=O)N(CC(=O)O)Cc2ccc(OCCc3nc(-c4ccccc4)oc3C)cc2)cc1 [MURAGLITAZAR],Drug uptake,[1],5.2%
same,Drug uptake,[2],23.6%
same,Drug uptake,Hepatocyte [3],< 0.2%
same,Drug uptake,[4],0.4%
same,Drug uptake,Plasma [5],0.1%
same,Drug uptake,Plasma [6],< 0.05%
same,Drug uptake,[7],< 0.2%
same,Drug uptake,Plasma [8],0.4%
same,Drug uptake,[9],1.3%
same,Drug uptake,[10],0.89%
same,Drug uptake,Rattus norvegicus [11],< 0.01%
same,Drug uptake,Hepatocyte [12],4.5%
same,Drug uptake,[13],3.33%
same,Drug uptake,Hepatocyte [14],< 0.2%
same,dose excreted at 48 h,[15],25%
same,Drug uptake,Plasma [16],< 0.05%
same,Drug uptake,[17],0.068 mgequiv/ml
same,Drug uptake,Plasma [18],4.2%
same,Drug uptake,[19],0.07%
same,Drug uptake,[20],0.85%
same,Drug uptake,[21],4.8%
same,Drug uptake,Plasma [22],< 0.05%
same,Drug uptake,Rattus norvegicus [23],4.39%
same,Cmax,Homo sapiens,1.4 ugequiv/ml
same,Drug uptake,[24],1.1%
same,Drug uptake,Plasma [25],2.9%
same,Drug uptake,Hepatocyte [26],0.5%
same,Drug uptake,[27],< 0.2%
same,Drug uptake,[28],35.7%
same,Drug uptake,[29],0.5%
same,Drug uptake,Plasma [30],0.3%
same,Drug uptake,Hepatocyte [31],2.2%
same,Drug uptake,Plasma [32],3%
same,Drug uptake,Plasma [33],2.7%
same,Drug uptake,Rattus norvegicus [34],0.05%
same,Drug uptake,Plasma [35],2.5%
same,Drug uptake,[36],0.16%
same,Drug uptake,Rattus norvegicus [37],0.12%
same,Drug uptake,Plasma [38],0.2%
same,Drug uptake,[39],0.59%
same,Drug uptake,[40],0.3%
same,Drug uptake,Plasma [41],0.3%
same,Drug uptake,[42],75%
same,Drug uptake,Hepatocyte [43],0.5%
same,dose excreted at 48 h,[44],30%
same,Drug uptake,[45],0.8%
same,Drug uptake,[46],1.29%
same,Tmax,[47],1 h
same,Drug uptake,Plasma [48],2%
same,Drug uptake,Hepatocyte [49],< 0.2%
same,Drug uptake,[50],0.8%
same,Drug uptake,Rattus norvegicus [51],< 0.01%
